{
  "source": "patent US20180296630A1",
  "about": "“METHODS AND COMPOSITIONS FOR PREVENTING OR TREATING OPHTHALMIC CONDITIONS” (Stealth BioTherapeutics Corp, priority 2012, published 2018)",
  "key": {"GTM cells": {"tested_on": "GTM cells", "test": "Mitochondrial membrane potential of GTM cells exposed to H2O2 (TMRM, confocal microscopy / flow cytometry)", "type": "cell-based, human", "text": "(§1) Methods to measure mitochondrial membrane potential using TMRM useful in the studies of the present invention have been described by Andrea Rasola and Massimo Geuna, A flow cytometry assay simultaneously detects independent apoptotic parameters, Cytometry 45:151-157, 2001; Mitoprobe™ JC-1 Kit for Flow Cytometry, Molecular Probes, Invitrogen, USA.\n(§2) The mitochondrial membrane potential (Δψm) of HTM and GTM cells was investigated when those cells were exposed to hydrogen peroxide prior to administration of D-Arg-2′,6′-Dmt-Lys-Phe-NH2. First, the mitochondrial membrane potential was measured using confocal microscopy of cells labeled with tetramethylrhodamine methyl ester (TMRM, 500 nM×30 min) (FIG. 15). The mitochondrial membrane potential was also measured using flow cytometry (FIGS. 16-17) by labeling cells with the mitochondrion-selective probe tetramethylrhodamine methyl ester (TMRM, 500 nM×30 min).\nThe morphology of GTM cells was investigated when those cells were exposed to D-Arg-2′,6′-Dmt-Lys-Phe-NH2 prior to administration of hydrogen peroxide. […] That is, hydrogen peroxide mediated cell loss and rounding was diminished in cells exposed to D-Arg-2′,6′-Dmt-Lys-Phe-NH2 peptide. The mitochondrial membrane potential (Δψm) of HTM and GTM cells was also investigated when those cells were exposed to D-Arg-2′,6′-Dmt-Lys-Phe-NH2 prior to administration of hydrogen peroxide. The mitochondrial membrane potential was measured using confocal microscopy of cells labeled with tetramethylrhodamine methyl ester (TMRM, 500 nM×30 min) (FIG. 19-21). […] As such, D-Arg-2′,6′-Dmt-Lys-Phe-NH2 provides a protective effect against oxidative stress in GTM cells."}, "HTM cells": {"tested_on": "HTM cells", "test": "TMRM fluorescence (mitochondrial membrane potential), acute H2O2 injury, FACS, HTM cells", "type": "cell-based, human", "details": "n=4", "text": "as §1, §2\nThe effects of D-Arg-2′,6′-Dmt-Lys-Phe-NH2 at mitigating acute oxidative injury in GTM and HTM cells was investigated. […] The percentage of fluorescence intensity compared to GTM control in H2O2, D-Arg-2′,6′-Dmt-Lys-Phe-NH2 10^−6M, D-Arg-2′,6′-Dmt-Lys-Phe-NH2 10^−7M, D-Arg-2′,6′-Dmt-Lys-Phe-NH2 10^−8M were 35.2±2.12%, 56.2±4.04%, 50.3±4.46%, 47.5±2.82% respectively, n=4; the HTM groups were 37.4±0.725%, 57.7±1.80%, 50.6±3.06%, 49.4±2.27% respectively, n=4. ** means P<0.01 compared to GTM H2O2 group; * means P<0.05 compared to GTM H2O2 group; ▴ ▴ ▴ means P<0.001 compared to HTM H2O2 group."}, "[1]": {"tested_on": "STZ and HFD/STZ diabetic rats", "test": "Lens epithelium changes in diabetic SD rats", "type": "in vivo, Sprague-Dawley rat", "details": "STZ rat model and HFD/STZ rat model", "protocol": "(§3) A rat model of diabetes was established by combination of 6-week HFD and low dose of STZ (30 mg/kg) injection or a single high dose of STZ (65 mg/kg) in SD rats. See generally, K. Srinivasan, B. Viswanad, Lydia Asrat, C. L. Kaul and P. Ramarao, Combination of high-fat diet-fed and low-dose streptozotocin-treated rat: A model for type 2 diabetes and pharmacological screening, Pharmacological Research, 52(4): 313-320, 2005. Rats of the same batch fed with normal chow (NRC) were used as a control.\nThe effect of the aromatic cationic peptides on lens epithelium in the SD rat model was investigated. Administration of D-Arg-2′,6′-Dmt-Lys-Phe-NH2 reduced epithelial cellular changes in both STZ rat model (FIG. 8) and HFD/STZ rat model (FIG. 9)."}, "[2]": {"tested_on": "trabecular meshwork cells from non-diseased individuals (HTM)", "test": "LDH cytotoxicity assay, HTM cells", "type": "cell-based, human", "text": "In this Example, the effects of the aromatic-cationic peptides of the invention were compared between trabecular meshwork cells from POAG patients (GTM) and trabecular meshwork cells from non-diseased individuals (HTM). Methods useful in the studies of the present invention have been described. See generally, He Y, Ge J, Tombran-Tink J., Mitochondrial defects and dysfunction in calcium regulation in glaucomatous trabecular meshwork cells. Invest Ophthalmol Vis Sci. 2008, 49(11):4912-22; He Y, Leung K W, Zhang Y H, Duan S, Zhong X F, Jiang R Z, Peng Z, Tombran-Tink J, Ge J. Mitochondrial complex I defect induces ROS release and degeneration in trabecular meshwork cells of POAG patients: protection by antioxidants. Invest Ophthalmol Vis Sci. 2008, 49(4):1447-58. […]\nTo assess whether D-Arg-2′,6′-Dmt-Lys-Phe-NH2 had cytotoxic effects of HTM or GTM cells, various concentrations of D-Arg-2′,6′-Dmt-Lys-Phe-NH2 were administered to cells and the cytotoxicity was measured using an LDH assay. […] The assay quantitatively measures the stable, cytosolic, lactate dehydrogenase (LDH) enzyme, which is released from damaged cells. The released LDH is measured with a coupled enzymatic reaction that results in the conversion of a tetrazolium salt (iodonitrotetrazolium (INT)) into a red color formazan by diaphorase. […] The LDH activity is determined as NADH oxidation or INT reduction over a defined time period."}, "STZ diabetic rats": {"tested_on": "STZ diabetic rats", "test": "Lens opacity (cataract) in STZ rat model", "type": "in vivo, Sprague-Dawley rat", "details": "10 mg (Table 11: 10 mg/kg s.c.)", "protocol": "as §3"}},
  "data": [
    {"substance": "D-Arg-2′,6′-Dmt-Lys-Phe-NH2", "values": [
      {"measurement": "decrease in mitochondrial potential (Δψm) elicited by H2O2", "setting": "GTM cells; GTM cells, co-treatment, 200 μM H2O2, confocal", "result": "dose-dependently inhibited the decrease"},
      {"measurement": "loss of mitochondrial membrane potential caused by H2O2", "setting": "GTM cells; GTM cells, co-treatment, 400 μM H2O2, dose-dependent, confocal", "result": "reduced the loss"},
      {"measurement": "mitochondrial membrane potential", "setting": "GTM cells; cells exposed to hydrogen peroxide prior to administration of peptide (Group A)", "result": "improves"},
      {"measurement": "mitochondrial membrane potential", "setting": "GTM cells; pre-treatment with peptide before hydrogen peroxide (Group B)", "result": "dose-dependently improves"},
      {"measurement": "percentage of TMRM fluorescence intensity compared to control", "setting": "HTM cells; 10^−6M", "result": "57.7±1.80", "unit": "%"},
      {"measurement": "percentage of TMRM fluorescence intensity compared to control", "setting": "HTM cells; 10^−7M", "result": "50.6±3.06", "unit": "%"},
      {"measurement": "percentage of TMRM fluorescence intensity compared to control", "setting": "HTM cells; 10^−8M", "result": "49.4±2.27", "unit": "%"},
      {"measurement": "epithelial cellular changes of the lens epithelium", "setting": "[1]", "result": "reduced"},
      {"measurement": "cytotoxicity", "setting": "[2]; 10^−4M", "result": "no cytotoxicity"},
      {"measurement": "viability (LDH assay)", "setting": "[2]; various concentrations", "result": "does not affect the viability"},
      {"measurement": "Opacity degree ++++, number in group", "setting": "STZ diabetic rats", "result": 1},
      {"measurement": "Opacity degree +++, number in group", "setting": "STZ diabetic rats", "result": 0},
      {"measurement": "Opacity degree ++, number in group", "setting": "STZ diabetic rats", "result": 0},
      {"measurement": "Opacity degree +, number in group", "setting": "STZ diabetic rats", "result": 2},
      {"measurement": "Opacity degree −, number in group", "setting": "STZ diabetic rats", "result": 2},
      {"measurement": "Percentage of opacity", "setting": "STZ diabetic rats", "result": 60.0, "unit": "%"},
      {"measurement": "Percentage of severe opacity", "setting": "STZ diabetic rats", "result": 20.0, "unit": "%"}
    ]}
  ]
}
